IC50 data for 18 molecules are collected here from US7582631B2, “Substituted heterocyclic compounds and methods of use” (Amgen Inc., priority 2004, dated 2009).

Bounds are passed on as bounds.

Experiment [1] has as its system human T cells. Briefly: Anti-CD3/anti-CD28-induced T cell IL-2 Secretion and Proliferation Assay. It is filed as cell-based. The settings on record: list printed after the T cell IL-2 secretion/proliferation method, threshold 500 μM.
Experiment [2] relates to whole human blood. Briefly: Anti-CD3/anti-CD28-induced IL-2 Secretion in Whole Human Blood. It is filed as cell-based. The settings on record: 48 h, IL-2 by ELISA, threshold 5 μM. How it is done: Anti-CD3/anti-CD28-induced IL-2Secretion in Whole Human Blood
The purpose of this assay is to test the potency of T cell receptor (TCR; CD3) and CD28 signaling pathway inhibitors in whole human blood. Anti-CD3 antibody (10 ug/mL; R&D Systems) is precoated on the wells of 96-well plates. Compounds are added in T-cell dilution media (Iscoves modified DMEM), supplemented with 0.1% human serum albumin, 5 uM Beta-mercaptoethanol, and 1×Pen/Strep/Glu. Compounds are tested in triplicate. 100 μL of whole human blood (collected in heparinized tubes) is added to each well and the plates are incubated for 30 minutes at 37° C., 5% CO2. Anti-CD28 antibody (2 ug/mL; R&D Systems) is diluted in T-cell dilution media and is added to the wells. The mixture is incubated for 48 h at 37° C., 5% CO2. The cells are then pelleted, and the supernatant collected and IL-2 production determined by ELISA (R&D Systems).

As for `c1ccc(CNc2cc(-n3nc(N4C[C@@H]5C[C@H]4CN5)c4ccccc43)ccn2)cc1` [Example 69], the IC50 is less than 500 µM in experiment [1] and less than 5 µM in experiment [2].

In the case of `CC(C)N1C[C@@H]2C[C@H]1CN2c1cc(-c2ccnc(N[C@@H](C)c3ccccc3)c2)nc2ccccc12` [Example 52, (S)-{4-[4-(5-Isopropyl-(1S,4S)-2,5-diaza-bicyclo[2.2.1]hept-2-yl)-quinolin-2-yl]-pyridin-2-yl}-(1-phenyl-ethyl)-amine], the results for the concentration for half-maximal inhibition (IC50) in experiment [1] and in experiment [2] were less than 500 µM and less than 5 µM, respectively.

`CCN1CC2CC1CN2c1nc(-c2ccnc(N[C@@H](C)c3ccccc3)c2)nc2ccccc12` (stereo partly drawn) [(S)-{4-[4-(5-Ethyl-(1S,4S)-2,5-diaza-bicyclo[2.2.1]hept-2-yl)-quinazolin-2-yl]-pyridin-2-yl}-(1-phenyl-ethyl)-amine] returned an IC50 in experiment [2] of less than 5 µM.

Turning to `C[C@H](Nc1cc(-n2nc(N3C[C@@H]4C[C@H]3CN4)c3ccccc32)ccn1)c1ccccc1F` [Example 24, (S)-{4-[3-((1S,4S)-2,5-Diaza-bicyclo[2.2.1]hept-2-yl)-indazol-1-yl]-pyridin-2-yl}-[1-(2-fluoro-phenyl)-ethyl]-amine], in experiment [2], the IC50 is less than 5 µM.

As to `Fc1ccccc1CNc1cc(-c2cc3nccn3c(N3C[C@@H]4C[C@H]3CN4)n2)ccn1` [Example 57, {4-[5-((1S,4S)-2,5-Diaza-bicyclo[2.2.1]hept-2-yl)-imidazo[1,2-c]pyrimidin-7-yl]-pyridin-2-yl}-(2-fluoro-benzyl)-amine], the results for the IC50 in experiment [1] and in experiment [2] were less than 500 µM and less than 5 µM, respectively.

Consider `CCN1C[C@@H]2C[C@H]1CN2c1nc(-c2ccnc(N[C@@H](C)c3ccccc3)c2)nc2ccccc12` [Example 64, (S)-{4-[4-(5-Ethyl-(1S,4S)-2,5-diaza-bicyclo[2.2.1]hept-2-yl)-quinazolin-2-yl]-pyridin-2-yl}-(1-phenyl-ethyl)-amine], for which, in experiment [1], the IC50 is less than 500 µM.

Molecule `C[C@H](Nc1cc(-c2cc3nccn3c(N3C[C@@H]4C[C@H]3CN4)n2)ccn1)c1ccccc1` [Example 3, (S)-{4-[5-((1S,4S)-2,5-Diaza-bicyclo[2.2.1]hept-2-yl)-imidazo[1,2-c]pyrimidin-7-yl]-pyridin-2-yl}-(1-phenyl-ethyl)-amine] returned an IC50 in experiment [2] of less than 5 µM.

The molecule `CC(C)N1C[C@@H]2C[C@H]1CN2c1nccc(-c2ccnc(N[C@@H](C)c3ccccc3)c2)n1` [Example 66, (S)-{4-[2-(5-Isopropyl-(1S,4S)-2,5-diaza-bicyclo[2.2.1]hept-2-yl)-pyrimidin-4-yl]-pyridin-2-yl}-(1-phenyl-ethyl)-amine] yielded an IC50 in experiment [2] of less than 5 µM.

In turn, `CCN1C[C@@H]2C[C@H]1CN2c1nc(-c2ccnc(N[C@@H](C)c3ccccc3)c2)cc2nccn12` [Example 5, (S)-{4-[5-(5-Ethyl-(1S,4S)-2,5-diaza-bicyclo[2.2.1]hept-2-yl)-imidazo[1,2-c]pyrimidin-7-yl]-pyridin-2-yl}-(1-phenyl-ethyl)-amine] showed an IC50 in experiment [2] of less than 5 µM.

Regarding `C[C@H](Nc1cc(-c2cc(N3C[C@@H]4C[C@H]3CN4)c3ccccc3n2)ccn1)c1ccccc1` [Example 51, (S)-{4-[4-((1S,4S)-2,5-Diaza-bicyclo[2.2.1]hept-2-yl)-quinolin-2-yl]-pyridin-2-yl}-(1-phenyl-ethyl)-amine], in experiment [1], the IC50 was less than 500 µM.

Turning to `C[C@H](Nc1cc(-c2nc(N3CC4CC3CN4C)c3ccccc3n2)ccn1)c1ccccc1` (stereo partly drawn) [(S)-{4-[4-(5-Methyl-(1S,4S)-2,5-diaza-bicyclo[2.2.1]hept-2-yl)-quinazolin-2-yl]-pyridin-2-yl}-(1-phenyl-ethyl)-amine], the IC50 in experiment [1] is less than 500 µM.

On to `C[C@H](Nc1cc(-c2nc(N3C[C@@H]4C[C@H]3CN4)c3ccccc3n2)ccn1)c1ccccc1` [Example 49, {4-[4-((1S,4S)-2,5-Diaza-bicyclo[2.2.1]hept-2-yl)-quinazolin-2-yl]-pyridin-2-yl}-(S)-(1-phenyl-ethyl)-amine], for which the IC50 in experiment [1] was less than 500 µM; in experiment [2], less than 5 µM.

On to `CC(C)N1C[C@@H]2C[C@H]1CN2c1nc(-c2ccnc(N[C@@H](C)c3ccccc3)c2)nc2ccccc12` [Example 65, (S)-{4-[4-(5-Isopropyl-(1S,4S)-2,5-diaza-bicyclo[2.2.1]hept-2-yl)-quinazolin-2-yl]-pyridin-2-yl}-(1-phenyl-ethyl)-amine], for which the IC50 in experiment [2] was less than 5 µM.

The molecule `CC(C)N1CC2CC1CN2c1nc(-c2ccnc(N[C@@H](C)c3ccccc3)c2)nc2ccccc12` (stereo partly drawn) [(S)-{4-[4-(5-Isopropyl-(1S,4S)-2,5-diaza-bicyclo[2.2.1]hept-2-yl)-quinazolin-2-yl]-pyridin-2-yl}-(1-phenyl-ethyl)-amine] registered an IC50 in experiment [1] of less than 500 µM.

As to `CC(C)N1C[C@@H]2C[C@H]1CN2c1nn(-c2ccnc(N[C@@H](C)c3ccccc3)c2)c2ccccc12` [Example 44, (S)-{4-[3-(5-Isopropyl-(1S,4S)-2,5-diaza-bicyclo[2.2.1]hept-2-yl)-indazol-1-yl]-pyridin-2-yl}-(1-phenyl-ethyl)-amine], the IC50 in experiment [1] is less than 500 µM; in experiment [2] it was less than 5 µM.

As for `Fc1ccc2c(N3CC4CC3CN4)nn(-c3ccnc(NCc4ccccc4)c3)c2c1` [Benzyl-{4-[3-((1S,4S)-2,5-diaza-bicyclo[2.2.1]hept-2-yl)-6-fluoro-indazol-1-yl]-pyridin-2-yl}-amine], the IC50 in experiment [1] is less than 500 µM; in experiment [2], less than 5 µM.

Regarding `CC(C)N1C[C@@H]2C[C@H]1CN2c1nc(-c2ccnc(N[C@@H](C)c3ccccc3)c2)cc2nccn12` [Example 4, (S)-{4-[5-(5-Isopropyl-(1S,4S)-2,5-diaza-bicyclo[2.2.1]hept-2-yl)-imidazo[1,2-c]pyrimidin-7-yl]-pyridin-2-yl}-(1-phenyl-ethyl)-amine], the IC50 in experiment [1] is less than 500 µM; in experiment [2], less than 5 µM.

In experiment [1], `C[C@H](Nc1cc(-n2nc(N3C[C@@H]4C[C@H]3CN4)c3ccccc32)ccn1)c1ccccc1` [Example 43, (S)-{4-[3-((1s, 4S)-2,5-Diaza-bicyclo[2.2.1]hept-2-yl)-indazol-1-yl]-pyridin-2-yl}-(1-phenyl-ethyl)-amine] gave an IC50 of less than 500 µM.
